Results on 21 compounds are retold here after patent USRE47689E1, “Compounds for treating spinal muscular atrophy” (PTC Therapeutics, Inc., priority 2011, dated 2019).

Series [1] has as its system Smn protein. Kind of series: Smn protein assay in cultured cells (SMN HTRF). Type of series: cell-based, human. The note with it: 48 hours; for maximum fold (Fold) increase of Smn protein: SMA patient fibroblast cells, 7-point concentration data, fold increase relative to vehicle control (SMN HTRF); for EC1.5x (concentration giving 1.5-fold Smn protein increase): SMA Type 1 patient fibroblast cells (GM03813), 7-point concentration curve, SMN HTRF, concentration producing 1.5 times Smn protein vs DMSO vehicle control, read-out: EC1.5x for Smn protein expression. In outline: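 Lysates in RIPA with protease inhibitors are incubated overnight at room temperature with HTRF anti-SMN antibodies. EC1.5x is derived from fold increase in ΔF over vehicle.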
Background: Time-resolved FRET reads energy transfer from a long-lived donor to a nearby acceptor.

For series [2], the system named is SMN2 minigene (full length SMN2 minigene mRNA containing SMN2 exon 7). Description: SMN2 minigene mRNA splicing RT-qPCR assay in cultured cells. Type of series: cell-based, human. The note with it: Homo sapiens, HEK293-H, read-out: EC1.5x for production of full length SMN2 mRNA. In outline: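 Read-out: full-length (exon 7-included) SMN2 minigene mRNA by multiplex RT-qPCR with GAPDH, efficiency-corrected (1+E)^−Ct, GAPDH-normalized and divided by vehicle. Stably transfected HEK293H cells, 24 h compound exposure, duplicates per concentration. Value is EC1.5x, reported as star ranges.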

Where [3] appears, read: HEK293H cells stably transfected with SMN2-A minigene, 24 hours, 7-point concentration curve, 1.5-fold relative to vehicle-treated cells.

Like-named read-outs stand apart in the source and are kept apart here. A value given as a limit tells only on which side of the number the result lay.

Usually melting point stands for the temperature of the solid-liquid transition. `CN1CCN(c2ccc3cc(-c4cn5cccc(C6CC6)c5n4)c(=O)oc3c2)CC1` [Compound 244, 3-(8-cyclopropylimidazo[1,2-a]pyridin-2-yl)-7-(4-methylpiperazin-1-yl)-2H-chromen-2-one]: the melting point was in the range of 198 to 202 °C. The “maximum fold (Fold) increase of Smn protein” value (from here on “maximum fold (Fold) increase”) in series [1] is recorded as “* (maximum fold increase of ≤1.2)”. In addition, in series [2] (setting [3]), the EC (1.5-fold) is 0.3 to 1 µM.
The compound `Cl.O=c1oc2cc(N3CCCNCC3)ccc2cc1-c1cn2cccnc2n1` [Compound 186, 7-(1,4-diazepan-1-yl)-3-(imidazo[1,2-a]pyrimidin-2-yl)-2H-chromen-2-one hydrochloride] returned a melting point of over 300 °C. Besides, in series [1], the EC1.5x (concentration giving 1.5-fold Smn protein increase) lay in the range of 1000 to 3000 nM; the “maximum fold (Fold) increase” value is “*** (fold increase between >1.35 and ≤1.5)”. For the same compound, the EC (1.5-fold) in series [2] (setting [3]) lay in the range of 0.1 to 0.3 µM.
`Cc1cn2cc(-c3cc4ccc(OCCN(CCO)CCO)cc4oc3=O)nc2c(C)n1` [Compound 896, 7-{2-[bis(2-hydroxyethyl)amino]ethoxy}-3-(6,8-dimethylimidazo[1,2-a]pyrazin-2-yl)-2H-chromen-2-one]: the melting point lay within 199 to 202 °C. In series [1], the EC1.5x (concentration giving 1.5-fold Smn protein increase) was under 300 nM and the “maximum fold (Fold) increase” value is “***** (fold increase >1.65)”. For the same compound, in series [2] (setting [3]), the EC (1.5-fold) is under 0.1 µM.
`Cc1cn2cc(-c3cc4ccc(N5CCC(NC6CCC6)CC5)cc4oc3=O)nc2c(C)n1` [Compound 924, 7-[4-(cyclobutylamino)piperidin-1-yl]-3-(6,8-dimethylimidazo[1,2-a]pyrazin-2-yl)-2H-chromen-2-one] showed a melting point of 222 to 225 °C. For the same compound, in series [1], the EC1.5x (concentration giving 1.5-fold Smn protein increase) is under 300 nM; the “maximum fold (Fold) increase” value was “**** (fold increase between >1.5 and ≤1.65)”. In series [2] (setting [3]), the EC (1.5-fold) is under 0.1 µM.
Compound `Cc1nc2ccc(-c3cc4ccc(N5CCCNCC5)cc4oc3=O)cc2s1` [Compound 771, 7-(1,4-diazepan-1-yl)-3-(2-methyl-1,3-benzothiazol-6-yl)-2H-chromen-2-one] came in with a melting point of 228 to 230 °C. Also, in series [1], the “maximum fold (Fold) increase” value is recorded as “* (maximum fold increase of ≤1.2)”. Also, in series [2] (setting [3]), the EC (1.5-fold) lay in the range of 1 to 3 µM.
Turning to `CN1CCN(c2ccc3cc(-c4cn5cnccc5n4)c(=O)oc3c2)CC1` [Cpd 458, 3-(imidazo[1,2-c]pyrimidin-2-yl)-7-(4-methylpiperazin-1-yl)-2H-chromen-2-one], the melting point is 253 to 255 °C. The “maximum fold (Fold) increase” value in series [1] was “*** (fold increase between >1.35 and ≤1.5)”. Further, the EC (1.5-fold) in series [2] (setting [3]) lay in the range of 0.3 to 1 µM.
As for `Cc1nn2cc(-c3cc4ccc(N5CCNCC5)cc4oc3=O)nc2s1` [Cpd 441, 3-(2-methylimidazo[2,1-b][1,3,4]thiadiazol-6-yl)-7-(piperazin-1-yl)-2H-chromen-2-one], the melting point fell in the range of 288 to 290 °C. Moreover, in series [1], the “maximum fold (Fold) increase” value is “*** (fold increase between >1.35 and ≤1.5)”. Besides, the EC (1.5-fold) in series [2] (setting [3]) was under 0.1 µM.
Turning to `O=c1oc2cc(N3CCNCC3)ccc2cc1-c1cn2cc(C3CC3)cc(F)c2n1` [Compound 500, 3-(6-cyclopropyl-8-fluoroimidazo[1,2-a]pyridin-2-yl)-7-(piperazin-1-yl)-2H-chromen-2-one], the melting point was 261 to 271 °C. In addition, the “maximum fold (Fold) increase” value in series [1] is reported as “* (maximum fold increase of ≤1.2)”. Further, the EC (1.5-fold) in series [2] (setting [3]) lay in the range of 0.3 to 1 µM.
In the case of `Cc1ccc2nc(-c3cc4ccc(N5CCN(C(C)C)CC5)cc4oc3=O)cn2c1` [Compound 82, 3-(6-methylimidazo[1,2-a]pyridin-2-yl)-7-[4-(propan-2-yl)piperazin-1-yl]-2H-chromen-2-one], the melting point is 260 °C (dec.). Also, the “maximum fold (Fold) increase” value in series [1] is “** (fold increase between >1.2 and ≤1.35)”. Besides, the EC (1.5-fold) in series [2] (setting [3]) is 1 to 3 µM.
Regarding `Cn1c(-c2cc3ccc(N4CCN(C(=O)OCc5ccccc5)CC4)cc3oc2=O)nc2ccccc21` [Compound 43, benzyl 4-[3-(1-methyl-1H-benzimidazol-2-yl)-2-oxo-2H-chromen-7-yl]piperazine-1-carboxylate], the melting point fell in the range of 253 to 254 °C. The “maximum fold (Fold) increase” value in series [1] is on record as “* (maximum fold increase of ≤1.2)”. In series [2] (setting [3]), the EC (1.5-fold) fell in the range of 3 to 30 µM.
Take `Cc1cn2cc(-c3cc4ccc(N(C)[C@@H]5CCNC5)cc4oc3=O)nc2c(C)n1` [Compound 700, 3-(6,8-dimethylimidazo[1,2-a]pyrazin-2-yl)-7-{methyl[(3R)-pyrrolidin-3-yl]amino}-2H-chromen-2-one]: the melting point is 192 to 202 °C. Moreover, in series [1], the EC1.5x (concentration giving 1.5-fold Smn protein increase) was under 300 nM and the “maximum fold (Fold) increase” value is listed as “***** (fold increase >1.65)”. Further, in series [2] (setting [3]), the EC (1.5-fold) lay within 0.1 to 0.3 µM.
As for `COc1ccn2cc(-c3cc4ccc(N5CCCN(C)CC5)cc4oc3=O)nc2c1` [Compound 436, 3-(7-methoxyimidazo[1,2-a]pyridin-2-yl)-7-(4-methyl-1,4-diazepan-1-yl)-2H-chromen-2-one], the melting point was in the range of 198 to 207 °C. Besides, the “maximum fold (Fold) increase” value in series [1] was “* (maximum fold increase of ≤1.2)”. Also, the EC (1.5-fold) in series [2] (setting [3]) is 3 to 30 µM.
The compound `O=c1oc2cc(N3CCNCC3)cc(F)c2cc1-c1cn2ccsc2n1` [Compound 311, 5-fluoro-3-(imidazo[2,1-b][1,3]thiazol-6-yl)-7-(piperazin-1-yl)-2H-chromen-2-one] returned a melting point of 278 to 283 °C. In series [1], the EC1.5x (concentration giving 1.5-fold Smn protein increase) is 1000 to 3000 nM; the “maximum fold (Fold) increase” value was “*** (fold increase between >1.35 and ≤1.5)”. The EC (1.5-fold) in series [2] (setting [3]) was under 0.1 µM.
`CC(C)NCc1ccc2cc(-c3cn4ccsc4n3)c(=O)oc2c1` [Compound 199, 3-(imidazo[2,1-b][1,3]thiazol-6-yl)-7-[(propan-2-ylamino)methyl]-2H-chromen-2-one] gave a melting point of 141 to 145 °C. In addition, the “maximum fold (Fold) increase” value in series [1] was “** (fold increase between >1.2 and ≤1.35)”. Moreover, the EC (1.5-fold) in series [2] (setting [3]) was 1 to 3 µM.
Take `CN1CCCN(c2ccc3cc(-c4cc5ccccn5n4)c(=O)oc3c2)CC1` [Compound 193, 7-(4-methyl-1,4-diazepan-1-yl)-3-(pyrazolo[1,5-a]pyridin-2-yl)-2H-chromen-2-one]: the melting point was 159 to 163 °C. Also, in series [1], the EC1.5x (concentration giving 1.5-fold Smn protein increase) was in the range of 3000 to 10000 nM; the “maximum fold (Fold) increase” value is “** (fold increase between >1.2 and ≤1.35)”. Further, the EC (1.5-fold) in series [2] (setting [3]) was 0.1 to 0.3 µM.
`Cc1cccnc1Nc1cc2ccc(N3CCNCC3)cc2oc1=O` [Compound 61, 3-[(3-methylpyridin-2-yl)amino]-7-(piperazin-1-yl)-2H-chromen-2-one] showed a melting point of 164 to 167 °C. Further, in series [1], the “maximum fold (Fold) increase” value was “** (fold increase between >1.2 and ≤1.35)”. The EC (1.5-fold) in series [2] (setting [3]) lay within 3 to 30 µM.
Compound `Cc1cn2cc(-c3cc4ccc(C5CCNCC5)cc4oc3=O)nc2c(C)n1` [Cpd 742, 3-(6,8-dimethylimidazo[1,2-a]pyrazin-2-yl)-7-(piperidin-4-yl)-2H-chromen-2-one] came in with a melting point of 224 to 229 °C. In addition, in series [1], the EC1.5x (concentration giving 1.5-fold Smn protein increase) is under 300 nM and the “maximum fold (Fold) increase” value is recorded as “***** (fold increase >1.65)”. Further, the EC (1.5-fold) in series [2] (setting [3]) is under 0.1 µM.
In turn, `C[C@@H]1CN(c2ccc3cc(-c4cccs4)c(=O)oc3c2)C[C@H](C)N1` [Compound 364, 7-[(3R,5S)-3,5-dimethylpiperazin-1-yl]-3-(thiophen-2-yl)-2H-chromen-2-one] gave a melting point of 150 to 152 °C. In series [1], the “maximum fold (Fold) increase” value is reported as “* (maximum fold increase of ≤1.2)”. Also, in series [2] (24 h), the EC (1.5-fold) was 1 to 3 µM.
For the compound `C[C@@H]1CN(c2ccc3cc(-c4nc(C(F)(F)F)cs4)c(=O)oc3c2)CCN1` [Compound 240, 7-[(3R)-3-methylpiperazin-1-yl]-3-[4-(trifluoromethyl)-1,3-thiazol-2-yl]-2H-chromen-2-one], the melting point was in the range of 234 to 238 °C. The “maximum fold (Fold) increase” value in series [1] is “* (maximum fold increase of ≤1.2)”. For the same compound, in series [2] (setting [3]), the EC (1.5-fold) is 1 to 3 µM.
For `CC(=O)O.CC(=O)O.COc1nc(C)cn2cc(-c3cc4ccc(N5CCN(C)[C@H](C)C5)cc4oc3=O)nc12` [Compound 759, 7-[(3R)-3,4-dimethylpiperazin-1-yl]-3-(8-methoxy-6-methylimidazo[1,2-a]pyrazin-2-yl)-2H-chromen-2-one acetate (1:2)], the melting point fell in the range of 227 to 229 °C. Besides, the “maximum fold (Fold) increase” value in series [1] was “*** (fold increase between >1.35 and ≤1.5)”. In addition, the EC (1.5-fold) in series [2] (setting [3]) is under 0.1 µM.
Consider `Cc1cn2cc(-c3cc4ccc(N5CCCNCC5)cc4oc3=O)ccc2n1` [Compound 663, 7-(1,4-diazepan-1-yl)-3-(2-methylimidazo[1,2-a]pyridin-6-yl)-2H-chromen-2-one], for which the melting point fell in the range of 222 to 225 °C. The “maximum fold (Fold) increase” value in series [1] is “*** (fold increase between >1.35 and ≤1.5)”. The EC (1.5-fold) in series [2] (setting [3]) was under 0.1 µM.
